Target: Protease (Human immunodeficiency virus 1, UniProt Q9YQ12)
Experiment: Inhibition of HIV1 protease

Chain of Protease (Q9YQ12 whole entry): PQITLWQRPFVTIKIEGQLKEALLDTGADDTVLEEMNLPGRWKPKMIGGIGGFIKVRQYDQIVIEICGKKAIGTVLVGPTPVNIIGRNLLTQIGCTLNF

IC50 [µM]	Compound
0.0006	O=C(N[C@H]1c2ccccc2C[C@H]1O)[C@H](Cc1ccccc1)CC(O)C[C@@H](Cc1ccccc1)C(=O)N[C@H]1c2ccccc2C[C@H]1O
100	CC(C)(C)NC(=O)[C@H]1CN(Cc2cccnc2)CCN1C[S+](=N)([O-])C[C@H](Cc1ccccc1)C(=O)N[C@@H]1c2ccccc2C[C@@H]1O (stereo partly drawn)
100	CC(C)(C)NC(=O)C1CN(Cc2cccnc2)CCN1C[S+]([O-])C[C@H](Cc1ccccc1)C(=O)NC1c2ccccc2CC1O (single isomer, unassigned)
